Measurements taken from patent publication US12729377B2, “RNAi agents and compositions for inhibiting expression of angiopoietin-like 3 (ANGPTL3), and methods of use” (Arrowhead Pharmaceuticals, Inc., priority 2017, dated 2026).
In the oligonucleotide strings, read from the 5' end, every base follows the letter of its sugar. An asterisk marks phosphorothioate; unmarked linkages are phosphodiester. Other units and linkages are bracketed, terminal groups are in braces. A string of capitals states the bases alone. {NAG37} = tridentate N-acetyl-galactosamine targeting ligand, structure (NAG37)s; [invAb] = inverted abasic unit; m = 2'-O-methyl; f = 2'-fluoro

Assays:
ANGPTL3 gene [1] = experiment: Example 9: serum triglycerides in cynomolgus monkeys; type: in vivo, cynomolgus macaque (Macaca fascicularis); conditions: 2.0 mg/kg single SC injection day 1, cynos, n=3
Method: Additional ANGPTL3 RNAi agents were evaluated in cynomolgus monkeys. On day 1, cynomolgus macaque (Macaca fascicularis) primates (also referred to herein as “cynos”) were administered a single subcutaneous injection of 0.3 mL/kg (approximately 2-3 mL volume, depending on animal mass) containing 2.0 mg/kg of an ANGPTL3 RNAi agent, which included either AD05488, AD05743, AD05775, or AD05841, each formulated in saline. […] ANGPTL3 RNAi agents AD05488, AD05743, and AD05775 included nucleotide sequences designed to target position 304 of the ANGPTL3 gene. ANGPTL3 RNAi agent AD05841 included nucleotide sequences designed to target position 1035 of the ANGPTL3 gene.
Three (3) cynos in each group were tested (n=3). Blood samples were drawn and serum samples were analyzed on days −14 (predose), −7 (predose), 1 (pre-dose), 8, 15, 22, 29, and 35. Cynos were fasted overnight prior to each collection. ANGPTL3 protein levels in serum were measured by ELISA assay (R&D Systems), according to the manufacturer's recommendations. Triglycerides, total cholesterol, high-density lipoprotein (HDL), and low-density lipoprotein (LDL) in serum were measured on a Cobas® Integra 400 (Roche Diagnostics), according to the manufacturer's recommendations.
The ANGPTL3 protein levels, triglyceride levels, total cholesterol levels, HDL levels, and LDL levels for each animal were normalized. For normalization, the level of ANGPTL3 protein, triglyceride, HDL, and total cholesterol, respectively, for each animal at a time point, was divided by the average pre-treatment level of expression in that animal (in this case at days −14, −7, and 1) to determine the ratio of expression “normalized to pre-treatment.”

ANGPTL3 gene [2] = experiment: Example 6: serum LDL in mice; type: in vivo, C57bl/6 mice
Method: To assess the in vivo activity of additional ANGPTL3 RNAi agents that are designed to target position 304 on the ANGPTL3 gene, six- to eight-week-old female C57bl/6 mice were used. Pre-dose serum samples were taken at day −1 after a four hour fast. At day 1, each mouse was given a single subcutaneous administration of 200 μl containing 0.5 mg/kg (mpk) of an ANGPTL3 RNAi agent in D5W (dextrose in 5% water), or control (D5W) with no RNAi agent, according to the dosing groups recited in Table 25.
Each of the RNAi agents included a modified sequence and an N-acetyl-galactosamine-containing targeting ligand conjugated to the 5′ terminal end of the sense strand. (See Tables 3, 4, and 5 for modified sequences and targeting ligand structures). The injections were performed between the skin and muscle (i.e. subcutaneous injections) into the loose skin over the neck and shoulder area. Three (3) mice in each group were tested (n=3). Serum was collected on days 8, 15, 22, 30, and on day 43 for certain groups (i.e., Groups 1, 2, 5, and 10 only). Mice were fasted for four hours prior to each collection. ANGPTL3 protein levels in serum were measured by ELISA assay (R&D Systems), according to the manufacturer's recommendations. Triglycerides, total cholesterol, high-density lipoprotein (HDL), and low-density lipoprotein (LDL) in serum were measured on a Cobas® Integra 400 (Roche Diagnostics), according to the manufacturer's recommendations.
The ANGPTL3 protein levels, triglyceride levels, total cholesterol levels, HDL levels, and LDL levels for each animal were normalized. For normalization, the level of ANGPTL3 protein, triglyceride, HDL, and total cholesterol, respectively, for each animal at a time point, was divided by the pre-treatment level of expression in that animal (in this case at day −1) to determine the ratio of expression “normalized to pre-treatment.” Expression at a specific time point was then normalized to the D5W control group by dividing the “normalized to pre-treatment” ratio for an individual animal by the mean “normalized to pretreatment” ratio of all mice in the D5W control group.

With “AD05488: RNAi agent duplex: antisense AM07235-AS, sense AM07234-SS (antisense mU*fA*mC*fUmGfAmUfCmAfAmAfUmAfUmGfUmUfGmAfG*mC; sense {NAG37}*[invAb]*mGmCmUmCmAmAmCmAfUfAfUmUmUmGmAmUmCmAmGmUmA*[invAb])” the “Average Triglycerides Normalized to Pre-Treatment” value (shortened to “Average Triglycerides Normalized”) (ANGPTL3 gene [1]; Day 8) was 0.413, the “Average Triglycerides Normalized” value (ANGPTL3 gene [1]; Day 15) was 0.403 and the “Average Triglycerides Normalized” value (ANGPTL3 gene [1]; Day 22) was 0.288. For the same substance, the “Average Triglycerides Normalized” value (ANGPTL3 gene [1]; Day 29) was 0.344, the “Average Triglycerides Normalized” value (ANGPTL3 gene [1]; Day 35) was 0.350 and the “Avg LDL, normalized to pre-treatment and control” value (“Avg LDL, normalized” below) (ANGPTL3 gene [2]; Day 8, 0.5 mg/kg single SC injection on day 1, n=3) was 0.805. The “Avg LDL, normalized” value (ANGPTL3 gene [2]; Day 15, 0.5 mg/kg single SC injection on day 1, n=3) was 0.880, the “Avg LDL, normalized” value (ANGPTL3 gene [2]; Day 22, 0.5 mg/kg single SC injection on day 1, n=3) was 0.991 and the “Avg LDL, normalized” value (ANGPTL3 gene [2]; Day 30, 0.5 mg/kg single SC injection on day 1, n=3) was 1.093. For the same substance, the “Avg LDL, normalized” value (ANGPTL3 gene [2]; Day 43, 0.5 mg/kg single SC injection on day 1, n=3) was 0.970.
